What is called IC50 is the concentration that inhibits the measured activity by half.

This assay deals with T1, G12D-mutant human KRAS (amino acid residues 1-188) (Homo sapiens, UniProt P01116, G12D).
T1 construct: G12D or G12C-mutant human KRAS (amino acid residues 1-188) with FLAG tag; made in house; host or cells: E. coli
Kind of assay: KRAS Binding Disruption Assay (AlphaScreen; biotinylated KRpep-2d analogue or RAF1-RBD), G12D. The conditions noted are these: KRAS G12D; geometric mean; read-out: KRAS GMean IC50 (uM) MUTATION: G12D. Put shortly:
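Displacement format with mutant KRAS, biotinylated KRpep-2d analogue or RAF1-RBD (5-20 nM each) at pH 7.5 with 5 mM MgCl2.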
(In general: Alpha assays give light when donor and acceptor beads are brought close together.)

T1 sequence (P01116 1-188 isoform P01116-2 G12D): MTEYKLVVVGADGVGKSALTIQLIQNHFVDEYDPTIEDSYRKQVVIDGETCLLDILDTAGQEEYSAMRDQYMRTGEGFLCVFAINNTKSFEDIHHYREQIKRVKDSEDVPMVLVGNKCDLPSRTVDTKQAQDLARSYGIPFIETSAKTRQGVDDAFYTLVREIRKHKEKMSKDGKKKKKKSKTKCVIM

In the case of `CCc1cccc2c1N(c1ncc3c(N4C[C@H]5CC[C@@H](C4)N5)nc(OCC45CCCN4CCC5)nc3c1F)CCC2` [P-0558, 4-((1R,5S)-3,8-diazabicyclo[3.2.1]octan-3-yl)-7-(8-ethyl-3,4-dihydroquinolin-1(2H)-yl)-8-fluoro-2-((tetrahydro-1H-pyrrolizin-7a(5H)-yl)methoxy)pyrido[4,3-d]pyrimidine], the IC50 was 0.0001 to 10 µM.

For the compound `CCc1cccc2c1N(c1ccc3c(N4C[C@H]5CC[C@@H](C4)N5)nc(OCC45CCCN4CCC5)nc3c1F)CCC2` [P-0559, 4-((1R,5S)-3,8-diazabicyclo[3.2.1]octan-3-yl)-7-(8-ethyl-3,4-dihydroquinolin-1(2H)-yl)-8-fluoro-2-((tetrahydro-1H-pyrrolizin-7a(5H)-yl)methoxy)quinazoline], the IC50 was 0.0001 to 10 µM.

Take `CCc1cccc2c1N(c1ccc3c(N4C[C@H]5CC[C@@H](C4)N5)nc(OC[C@@H]4CCCN4C)nc3c1F)CCC2` [P-0560, 4-((1R,5S)-3,8-diazabicyclo[3.2.1]octan-3-yl)-7-(8-ethyl-3,4-dihydroquinolin-1(2H)-yl)-8-fluoro-2-(((S)-1-methylpyrrolidin-2-yl)methoxy)quinazoline]: the IC50 is 0.0001 to 10 µM.

As for `Fc1cc(Cl)c2c(-c3ccc4c(N5C[C@H]6CC[C@@H](C5)N6)nc(OCC56CCCN5CCC6)nc4c3F)c[nH]c2c1` [P-0561, 4-((1R,5S)-3,8-diazabicyclo[3.2.1]octan-3-yl)-7-(4-chloro-6-fluoro-1H-indol-3-yl)-8-fluoro-2-((tetrahydro-1H-pyrrolizin-7a(5H)-yl)methoxy)quinazoline], the IC50 fell in the range of 0.0001 to 10 µM.

As to `Oc1cc(-c2nc(N3C[C@H]4CC[C@@H](C3)N4)c3ccc(-c4cc(O)cc5ccccc45)c(F)c3n2)c2ccccc2c1` [P-0562, 4,4′-(4-((1R,5S)-3,8-diazabicyclo[3.2.1]octan-3-yl)-8-fluoroquinazoline-2,7-diyl)bis(naphthalen-2-ol)], the 50% inhibitory concentration (IC50) fell in the range of 10 to 100 µM.

As to `Oc1cc(-c2ccc3c(N4C[C@H]5CC[C@@H](C4)N5)nc(N4CC5(CCC(O)C5)C4)nc3c2F)c2ccccc2c1` (stereo partly drawn) [P-0563, 2-(4-((1R,5S)-3,8-diazabicyclo[3.2.1]octan-3-yl)-8-fluoro-7-(3-hydroxynaphthalen-1-yl)quinazolin-2-yl)-2-azaspiro[3.4]octan-6-ol], the IC50 fell in the range of 0.0001 to 10 µM.

Consider `OCCC1CN(c2nc(N3C[C@H]4CC[C@@H](C3)N4)c3ccc(-c4cc(O)cc5ccccc45)c(F)c3n2)C1` [P-0564, 4-(4-((1R,5S)-3,8-diazabicyclo[3.2.1]octan-3-yl)-8-fluoro-2-(3-(2-hydroxyethyl)azetidin-1-yl)quinazolin-7-yl)naphthalen-2-ol], for which the IC50 lay within 0.0001 to 10 µM.

As to `CN(C)CC1CN(c2nc(N3C[C@H]4CC[C@@H](C3)N4)c3ccc(-c4cc(O)cc5ccccc45)c(F)c3n2)C1` [P-0565, 4-(4-((1R,5S)-3,8-diazabicyclo[3.2.1]octan-3-yl)-2-(3-((dimethylamino)methyl)azetidin-1-yl)-8-fluoroquinazolin-7-yl)naphthalen-2-ol], the IC50 fell in the range of 0.0001 to 10 µM.

As to `Fc1c(-c2c[nH]c3cncc(Cl)c23)ccc2c(N3C[C@H]4CC[C@@H](C3)N4)nc(OCC34CCCN3CCC4)nc12` [P-0566, 4-((1R,5S)-3,8-diazabicyclo[3.2.1]octan-3-yl)-7-(4-chloro-1H-pyrrolo[2,3-c]pyridin-3-yl)-8-fluoro-2-((tetrahydro-1H-pyrrolizin-7a(5H)-yl)methoxy)quinazoline], the half-maximal inhibitory concentration (IC50) lay within 0.0001 to 10 µM.

For `COCc1cccc2[nH]cc(-c3ccc4c(N5C[C@H]6CC[C@@H](C5)N6)nc(OCC56CCCN5CCC6)nc4c3F)c12` [P-0567, 4-((1R,5S)-3,8-diazabicyclo[3.2.1]octan-3-yl)-8-fluoro-7-(4-(methoxymethyl)-1H-indol-3-yl)-2-((tetrahydro-1H-pyrrolizin-7a(5H)-yl)methoxy)quinazoline], the IC50 was in the range of 0.0001 to 10 µM.

As for `CN(CC(C)(C)CO)c1nc(N2C[C@H]3CC[C@@H](C2)N3)c2ccc(-c3cc(O)cc4ccccc34)c(F)c2n1` [P-0568, 4-(4-((1R,5S)-3,8-diazabicyclo[3.2.1]octan-3-yl)-8-fluoro-2-((3-hydroxy-2,2-dimethylpropyl)(methyl)amino)quinaz-olin-7-yl)naphthalen-2-ol], the IC50 fell in the range of 10 to 100 µM.

With `OCC1(COc2nc(N3C[C@H]4CC[C@@H](C3)N4)c3ccc(-c4cc(O)cc5ccccc45)c(F)c3n2)CC2(CCC2)C1` [P-0569, 4-(4-((1R,5S)-3,8-diazabicyclo[3.2.1]octan-3-yl)-8-fluoro-2-((2-(hydroxymethyl)spiro[3.3]heptan-2-yl)methoxy)quinazolin-7-yl)naphthalen-2-ol], the IC50 was 0.0001 to 10 µM.

For the compound `Fc1c(-c2cccc3cccc(Cl)c23)ccc2c(N3C[C@H]4CC[C@@H](C3)N4)nc(OCC34CCCN3CCC4)nc12` [P-0570, 4-((1R,5S)-3,8-diazabicyclo[3.2.1]octan-3-yl)-7-(8-chloronaphthalen-1-yl)-8-fluoro-2-((tetrahydro-1H-pyrrolizin-7a(5H)-yl)methoxy)quinazoline], the IC50 fell in the range of 0.0001 to 10 µM.

Turning to `Fc1c(-c2cccc3cccc(Br)c23)ccc2c(N3C[C@H]4CC[C@@H](C3)N4)nc(OCC34CCCN3CCC4)nc12` [P-0571, 4-((1R,5S)-3,8-diazabicyclo[3.2.1]octan-3-yl)-7-(8-bromonaphthalen-1-yl)-8-fluoro-2-((tetrahydro-1H-pyrrolizin-7a(5H)-yl)methoxy)quinazoline], the IC50 was 0.0001 to 10 µM.

`Fc1c(-c2cncc3cccc(Cl)c23)ccc2c(N3C[C@H]4CC[C@@H](C3)N4)nc(OCC34CCCN3CCC4)nc12` [P-0572, 4-((1R,5S)-3,8-diazabicyclo[3.2.1]octan-3-yl)-7-(5-chloroisoquinolin-4-yl)-8-fluoro-2-((tetrahydro-1H-pyrrolizin-7a(5H)-yl)methoxy)quinazoline]: the IC50 lay within 0.0001 to 10 µM.

As to `COCCc1cccc2[nH]cc(-c3ccc4c(N5C[C@H]6CC[C@@H](C5)N6)nc(OCC56CCCN5CCC6)nc4c3F)c12` [P-0573, 4-((1R,5S)-3,8-diazabicyclo[3.2.1]octan-3-yl)-8-fluoro-7-(4-(2-methoxyethyl)-1H-indol-3-yl)-2-((tetrahydro-1H-pyrrolizin-7a(5H)-yl)methoxy)quinazoline], the IC50 is 0.0001 to 10 µM.

On to `OCc1cccc2[nH]cc(-c3ccc4c(N5C[C@H]6CC[C@@H](C5)N6)nc(OCC56CCCN5CCC6)nc4c3F)c12` [P-0574, (3-(4-((1R,5S)-3,8-diazabicyclo[3.2.1]octan-3-yl)-8-fluoro-2-((tetrahydro-1H-pyrrolizin-7a(5H)-yl)methoxy)quinazolin-7-yl)-1H-indol-4-yl)methanol], for which the IC50 is 0.0001 to 10 µM.

In the case of `CC(C)C(COC(=O)C(F)(F)F)COc1nc(N2C[C@H]3CC[C@@H](C2)N3)c2ccc(-c3cc(O)cc4ccccc34)c(F)c2n1` (stereo partly drawn) [P-0575, 2-(((4-((1R,5S)-3,8-diazabicyclo[3.2.1]octan-3-yl)-8-fluoro-7-(3-hydroxynaphthalen-1-yl)quinazolin-2-yl)oxy)methyl)-3-methylbutyl 2,2,2-trifluoroacetate], the IC50 was in the range of 0.0001 to 10 µM.

With `OCC1(C(F)(F)F)CCN(c2nc(N3C[C@H]4CC[C@@H](C3)N4)c3ccc(-c4cc(O)cc5ccccc45)c(F)c3n2)C1` (stereo partly drawn) [P-0576, 4-(4-((1R,5S)-3,8-diazabicyclo[3.2.1]octan-3-yl)-8-fluoro-2-(3-(hydroxymethyl)-3-(trifluoromethyl)pyrrolidin-1-yl)quinazolin-7-yl)naphthalen-2-ol], the IC50 fell in the range of 0.0001 to 10 µM.

For the compound `NC1(CO)CN(c2nc(N3C[C@H]4CC[C@@H](C3)N4)c3ccc(-c4cc(O)cc5ccccc45)c(F)c3n2)C1` [P-0577, 4-(2-(3-amino-3-(hydroxymethyl)azetidin-1-yl)-4-((1R,5S)-3,8-diazabicyclo[3.2.1]octan-3-yl)-8-fluoroquinazolin-7-yl)naphthalen-2-ol], the IC50 was 0.0001 to 10 µM.

For the compound `CCC1(N)CN(c2nc(N3C[C@H]4CC[C@@H](C3)N4)c3ccc(-c4cc(O)cc5ccccc45)c(F)c3n2)C1` [P-0578, 4-(2-(3-amino-3-ethylazetidin-1-yl)-4-((1R,5S)-3,8-diazabicyclo[3.2.1]octan-3-yl)-8-fluoroquinazolin-7-yl)naphthalen-2-ol], the IC50 was 0.0001 to 10 µM.

Turning to `OCC1(CNc2nc(N3C[C@H]4CC[C@@H](C3)N4)c3ccc(-c4cc(O)cc5ccccc45)c(F)c3n2)CC(F)(F)C1` [P-0579, 4-(4-((1R,5S)-3,8-diazabicyclo[3.2.1]octan-3-yl)-2-(((3,3-difluoro-1-(hydroxymethyl)cyclobutyl)methyl)amino)-8-fluoroquinazolin-7-yl)naphthalen-2-ol], the IC50 was 0.0001 to 10 µM.

In the case of `NCC1(COc2nc(N3C[C@H]4CC[C@@H](C3)N4)c3ccc(-c4cc(O)cc5ccccc45)c(F)c3n2)CC(F)(F)C1` [P-0580, 4-(2-((1-(aminomethyl)-3,3-difluorocyclobutyl)methoxy)-4-((1R,5S)-3,8-diazabicyclo[3.2.1]octan-3-yl)-8-fluoroquinazolin-7-yl)naphthalen-2-ol], the 50% inhibitory concentration (IC50) lay in the range of 0.0001 to 10 µM.

As to `OCC1(CNc2nc(N3C[C@H]4CC[C@@H](C3)N4)c3ccc(-c4cc(O)cc5ccccc45)c(F)c3n2)COC1` [P-0581, 4-(4-((1R,5S)-3,8-diazabicyclo[3.2.1]octan-3-yl)-8-fluoro-2-(((3-(hydroxymethyl)oxetan-3-yl)methyl)amino)quinazolin-7-yl)naphthalen-2-ol], the IC50 fell in the range of 0.0001 to 10 µM.

For `OCC1(CNc2nc(N3C[C@H]4CC[C@@H](C3)N4)c3ccc(-c4cc(O)cc5ccccc45)c(F)c3n2)CC1` [P-0582, 4-(4-((1R,5S)-3,8-diazabicyclo[3.2.1]octan-3-yl)-8-fluoro-2-(((1-(hydroxymethyl)cyclopropyl)methyl)amino)quinazolin-7-yl)naphthalen-2-ol], the IC50 fell in the range of 0.0001 to 10 µM.

The values are drawn from patent US20230081426A1, “COMPOUNDS AND METHODS FOR KRAS MODULATION AND INDICATIONS THEREFOR” (Plexxikon Inc., priority 2020, published 2023).
